Ends that are not written are not given here.
What was measured:
[1] = test system: Aeromonas salmonicida (As); format: cell-based; details: Mueller Hinton Broth
Procedure: (§1) The biological activity of the peptides can be determined by standard methods known to those of skill in the art, such as Aminimal inhibitory concentration (MIC)≅ assay described in the present examples, whereby the lowest concentration at which no change in OD is observed for a given period of time is recorded as MIC. Alternatively, Afractional inhibitory concentration (FIC)≅ is also useful for determination of synergy between the peptides of the invention, or the peptides in combination with known antibiotics. FICs are performed by checkerboard titrations of peptides in one dimension of a microtiter plate, and of antibiotics in the other dimension, for example. The FIC is calculated by looking at the impact of one antibiotic on the MIC of the other and vice versa. […] Preferably, an FIC of less than 0.5 is obtained for synergism. As used herein, FIC can be determined as follows: [formula]
(§2) These peptides varied in activity (Table 11), however, the C-terminally capped pleurocidin especially and its N-terminally capped lysine derivative had much better activities against a variety of bacteria including Vibrio anguillarum (Va), Aeromonas salmonicida (As), Staphylococcus epidermidis (C621), Salmonella typhimurium wild type (C587) and phoP phoQ mutant (C610), and Pseudomonas aeruginosa wild type (K799) and outer membrane barrier altered (Z61). The antimicrobial peptide CEME, a fusion peptide made from portions of an insect defensin ceropin A and the bee venom peptide melittin (Piers and Hancock, Mol. Microbiol., 12:951-8, 1994), as well as the known antibiotics polymyxin B and gentamicin were used as controls. Replacing the pleurocidin N-terminus with the dermaseptin N-terminus had no effect. Replacing pleurocidin N-terminus with the ceratoxin N-terminus reduced activity. […] Amidating the C-terminus improved antimicrobial activity. Replacing the pleurocidin C-terminus with the misgurin C-terminus had no effect.
(§3) Bacteria included Vibrio anguillarum (Va), Aeromonas salmonicida (As), Staphylococcus epidermidis (C621), Salmonella typhimurium wild type (C587) and phoP phoQ mutant (C6 10), and Pseudomonas aeruginosa wild type (K799) and outer membrane barrier altered (Z61).

[2] = test system: Pseudomonas aeruginosa outer membrane barrier altered (Z61); format: cell-based; details: Mueller Hinton Broth
Procedure: as §1, §2, §3

[3] = test system: Pseudomonas aeruginosa wild type (K799); format: cell-based; details: Mueller Hinton Broth
Procedure: as §1, §2, §3

[4] = test system: Salmonella typhimurium phoP phoQ mutant (C610); format: cell-based; details: Mueller Hinton Broth
Procedure: as §1, §2, §3

[5] = test system: Salmonella typhimurium wild type (C587); format: cell-based; details: Mueller Hinton Broth
Procedure: as §1, §2, §3

[6] = test system: Staphylococcus epidermidis (C621); format: cell-based; details: Mueller Hinton Broth
Procedure: as §1, §2, §3

Vibrio anguillarum (Va) = format: cell-based; details: Mueller Hinton Broth
Procedure: as §1, §2, §3

V. anguillarum = assay: Protection of coho salmon, peptide delivered constantly by intraperitoneal mini-osmotic pump; format: in vivo, juvenile coho salmon; details: P-CN osmotic pump, 19 fish; for Accumulated Mortalities: 30 days, saline pump control 75%, bacteria alone 67%
Procedure: Constant delivery of peptide P-CN using intraperitoneal mini-osmotic pumps was carried out. Briefly, juvenile coho salmon were divided into three treatment groups: A. Bacterial injection alone (12 fish). B. Fish saline osmotic pump and bacterial injection (12 fish). C. A combination of P-CN osmotic pump and bacterial injection (19 fish). The fish were anaesthetized and implanted (peritoneal cavity) with mini-osmotic pumps having a pumping rate of 0.13 µl/hour. Heaters were placed in the tanks to keep the water temperature between 12 and 13° C. Pumps were filled with concentrated P-CN to deliver approximately […] peptide to fish over a 30-day period. Twelve days after pump implantation, the fish received intraperitoneal injections of V. anguillarum ([…]). Mortalities were first noticed on day 3 for the group injected with bacteria alone and on day 5 for the group which received saline osmotic pumps as well as bacterial injections. However, there was no significant difference in mortality between the bacterial injection alone group and the saline osmotic pump group (67% vs. 75%). Mortalities were delayed for the P-CN osmotic pump group. The P-CN osmotic pump group had only one fish die on day 6 over the 30 days experiments with an accumulated mortality of 5%. […] Furthermore, since cationic peptides are not effective in a single treatment and constant administration is necessary, this argues for the potential success of transgenic fish expressing peptide P-CN.
Fish loss from disease is a significant problem in aquaculture worldwide. However, expression of natural cationic peptide genes in fish could increase disease resistance because of continual cellular production of the antimicrobial peptides. In order to choose optimal peptides for transgenic fish, the antimicrobial activities of some cationic peptides were determined by testing minimum inhibitory concentrations (MICs) in vitro. […] The in vivo effect of CEME was examined by intraperitoneal injection of the peptide along with V. anguillarum into juvenile coho salmon. Fish in the bacteria alone control group had 60% mortality, while fish receiving peptide and bacteria injections had 82% mortality. […] Therefore, constant delivery of CEME and Pleurocidin-CN using intraperitoneal mini-osmotic pumps were carried out. Twelve days after pump implantation, the fish received intraperitoneal injections of V. anguillarum. The CEME and pleurocidin-CN pump group had longer survival time and lower mortalities than the control groups (50% Vs. 13%, and 75% Vs. 5%, respectively). Indolicidin transgenic cutthroat trout were made using a construct including an MT promoter, growth hormone signal, pre-region, indolicidin, and terminator. […]

E. coli [7] = assay: MIC, broth microdilution assay in polypropylene microtiter trays; format: cell-based; details: average of three separate experiments
Procedure, shortened: (§4)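 Read-out: OD. MIC = lowest peptide conc. giving no OD change over the defined time.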

P. aeruginosa = assay: as above; format: cell-based; details: average of three separate experiments
Procedure, shortened: as §4

S. aureus K147 = assay: as above; format: cell-based; details: average of three separate experiments
Procedure, shortened: as §4

S. aureus = assay: as above; format: cell-based; details: average of three separate experiments
Procedure, shortened: as §4

S. epidermis = assay: as above; format: cell-based; details: average of three separate experiments
Procedure, shortened: as §4

[8] = test system: mutant (Nal B, H744) of P. aeruginosa; assay: microbe, parasite or virus in culture; format: cell-based
Procedure: as §1
(§5) To test whether the peptides of the invention synergize with various antibiotics, the following method was employed. Fractional Inhibitory Concentration (FIC) was used to determine synergy of peptides combined with antibiotics (e.g., carbenicillin/ciprofloxacin) against Pseudomonas aeruginosa. The following methodology was followed:
(§6) (1) Determination of MIC of cationic peptides (MIC A):
(§7) 100 μl Mueller Hinton broth (MHB) was added per well
(§8) 12.5 μl of 10× test concentration peptide was added per well to get final peptide concentration of e.g., 128, 64, 32, . . . 0.025 μg/ml from row 1 to 11;
(§9) 10 μl of 10^−4 dilution of overnight bacterial culture was added per well.
(§10) (2) Determination of MIC of Carbenicillin/Ciprofloxacin (MIC B):
(§11) 100 μl MHB was added per well;
(§12) 100 μl of 2× test concentration of antibiotic was added in the first well of the row, and doubling dilutions performed across the plate from column 1 to 11;
(§13) (3) Determination of MIC of antibiotics (B) when combined with peptides at concentration A:
(§14) 100 μl Carbenicillin (512 μg/ml) or Ciprofloxacin (8 μg/ml) was added in each well of column 1; doubling dilutions were performed across the plate;
(§15) 100 μl of the peptide was added in all wells of row 1, mixed, and 100 μl withdrawn and added to row 2, etc., creating a checkerboard titration.
(§16) 10 μl of 10^−4 dilution of overnight culture was added per well;
(§17) plates were incubated at 37EC for 18-24 hours. Combination MIC values A and B were taken as the lowest concentration of drug that reduced bacterial growth by more than 50% in any given column.
(§18) (4) FIC index=FICA+FICB=(A)/MIC A+(B)/MIC B. An FIC index of approximately 0.5 or less indicates synergy; 1.0 reflects additivity; and >1.0 indicates antagonism.

[9] = test system: β-lactamase derepressed mutant (H547) of P. aeruginosa; assay: microbe, parasite or virus in culture; format: cell-based; details: P. aeruginosa H547
Procedure: as §1, §5, §6, §7, §8, §9, §10, §11, §12, §13, §14, §15, §16, §17, §18

E. coli [10] = assay: Synergy study (checkerboard titration) with hen white lysozyme; format: cell-based
Procedure: as §1

P. aeruginosa (H103) = assay: as above; format: cell-based
Procedure: as §1

Salmonella typhi = assay: as above; format: cell-based
Procedure: as §1

[11] = Lethal endotoxemia in galactosamine-sensitized mice; format: in vivo, CD-1 mice; details: peptide 200 μg intraperitoneal within 10 min of 10 μg LPS; 24 hours post injection; 5 mice per group; no peptide 100
Procedure: To confirm this in vivo, endotoxic shock was induced by intraperitoneal injection of 10 μg of E.coli 0111:B4 LPS in phosphate-buffered saline (PBS; pH 7.2) into galactosamine-sensitized 8- to 10- week old female CD-1 mice (5 per group). In experiments involving peptides, 200 μg in 100 μl of sterile water was injected at separate intraperitoneal sites within 10 min of LPS injection. Survival was monitored at 24 hours post injection.

[12] = test system: Pseudomonas aeruginosa strain M2; assay: Protection of neutropenic CD-1 mice challenged with Pseudomonas aeruginosa; format: in vivo; design: Survival post bacterial challenge, surviving mice: reference not given here; details: for Survival (%) post bacterial challenge: PBS 8
Procedure, shortened: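 Neutropenia induced by three i.p. cyclophosphamide doses ([…], alternate days); mice then infected i.p. with 200-300 organisms/mouse. Peptides (200 µg/mouse = 8 mg/kg) in buffered citrate given i.p. at 30 min (single) or 30 min and 16 hrs (double) post-challenge; PBS control; mean of 2 experiments.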

[13] = cationic peptide concentration, combined with lysozyme
[14] = lysozyme concentration, combined with the peptide

With GWGSFFKKAAHVGKHVGKAALTHYL-NH2 [P-CN] the “MIC As” value [1] was 1 µg/mL, the “MIC Z61” value [2] was 4 µg/mL and the “MIC K799” value [3] was 8 µg/mL. For the same substance, the “MIC C610” value [4] was <0.5 µg/mL, the “MIC C587” value [5] was 4 µg/mL and the “MIC C621” value [6] was 4 µg/mL. The “MIC Va” value (Vibrio anguillarum (Va)) was 2 µg/mL, the “Accumulated Mortalities” value (V. anguillarum) was 5% and the “Accumulated Mortalities” value (V. anguillarum; listed as pleurocidin-CN) was 5%. The “Mortalities (fish died on the day)” value (V. anguillarum; day 6 after V. anguillarum challenge) was 1.

For KWKSFIKKLTKAAKKVVTTAKKPLIV [CM2], the “MIC E. coli” value (E. coli [7]) was 1 µg/mL, the “MIC P. aeruginosa” value (P. aeruginosa) was 3 µg/mL and the “MIC S. aureus K147” value (S. aureus K147) was >64 µg/mL. For the same substance, the “MIC S. aureus” value (S. aureus) was >64 µg/mL, the “MIC S. epidermis” value (S. epidermis) was 5 µg/mL and the “(B) MIC of Cipro when combined with peptide” value ([8]; ciprofloxacin with peptide at concentration (A), Nal B, H744) was “.25 µg/mL”. For the same substance, the “MIC A MIC of Peptides” value ([8]; peptide alone, P. aeruginosa mutant Nal B, H744 (Table 5)) was 1 µg/mL, the “(A) Peptide doses together with Cipro” value ([8]; peptide concentration in combination with ciprofloxacin, Nal B, H744) was “.5 µg/mL” and the “(B) MIC of Carb when combined with peptide” value ([9]; Carbenicillin with peptide at concentration (A)) was 64 µg/mL. The “MIC A MIC of Peptides” value ([9]; peptide alone) was 4 µg/mL, the “(A) Peptide doses together with Carb” value ([9]; peptide concentration in combination with Carbenicillin) was “.5 µg/mL” and the “FIC for combination of cationic peptide and lysozyme” value (shortened to “FIC for combination”) (E. coli [10]) was 0.25. The “Lowest [CP] showing synergy” value (E. coli [10]; [13]) was 0.081 µg/mL, the “Lowest [Lyso] showing synergy” value (E. coli [10]; [14]) was 7.8 µg/mL and the “FIC for combination” value (P. aeruginosa (H103)) was 0.37. The “Lowest [CP] showing synergy” value (P. aeruginosa (H103); [13]) was 1.3 µg/mL, the “Lowest [Lyso] showing synergy” value (P. aeruginosa (H103); [14]) was 7.8 µg/mL and the “FIC for combination” value (Salmonella typhi) was 0.53. The “Lowest [CP] showing synergy” value (Salmonella typhi; [13]) was 2.61 µg/mL, the “Lowest [Lyso] showing synergy” value (Salmonella typhi; [14]) was 31.3 µg/mL and the “Mortality (%)” value [11] was 80%. The “Survival post bacterial challenge, surviving mice” value (shortened to “Survival post bacterial challenge”) ([12]; double dose (200 μg per mouse i.p. at 30 min and 16 hrs), 16 hr) was 14, the “Survival post bacterial challenge” value ([12]; double dose, 24 hr) was 14 and the “Survival post bacterial challenge” value ([12]; double dose, 41 hr) was 10. For the same substance, the “Survival post bacterial challenge” value ([12]; double dose, 48 hr) was 7, the “Survival post bacterial challenge” value ([12]; double dose, 64 hr) was 7 and the “Survival (%) post bacterial challenge” value ([12]; double dose, 64 hr) was 50%. The “Survival post bacterial challenge” value ([12]; double dose, 72 hr) was 7, the “Survival (%) post bacterial challenge” value ([12]; double dose, 72 hr) was 50% and the “Survival post bacterial challenge” value ([12]; double dose, 96 hr) was 6. For the same substance, the “Survival (%) post bacterial challenge” value ([12]; double dose, 96 hr) was 42%, the “Survival post bacterial challenge” value ([12]; single dose (200 μg per mouse i.p. at 30 min), 16 hr) was 15 and the “Survival post bacterial challenge” value ([12]; single dose, 24 hr) was 15. For the same substance, the “Survival post bacterial challenge” value ([12]; single dose, 41 hr) was 13, the “Survival post bacterial challenge” value ([12]; single dose, 48 hr) was 12 and the “Survival post bacterial challenge” value ([12]; single dose, 64 hr) was 11. The “Survival (%) post bacterial challenge” value ([12]; single dose, 64 hr) was 73%, the “Survival post bacterial challenge” value ([12]; single dose, 72 hr) was 11 and the “Survival (%) post bacterial challenge” value ([12]; single dose, 72 hr) was 73%. The “Survival post bacterial challenge” value ([12]; single dose, 96 hr) was 10 and the “Survival (%) post bacterial challenge” value ([12]; single dose, 96 hr) was 66%.

Source: patent US6818407B2, “Anti-endotoxic antimicrobial cationic peptides and methods of use therfor” (priority 1998, dated 2004)
